Data taken from US8187821B2, “Compositions and methods for the modulation of PGRMC1” (University of Utah Research Foundation, priority 2008, dated 2012).
Where “and” joins values, the source holds several entries; their conditions need not be identical. Identical values can stand only once. Like-named read-outs stand apart in the source and are kept apart here.

Experiments:
[1] = target: T1, His10-PGRMC1 (Homo sapiens, UniProt O00264); experiment: PGRMC1 binding assay: [^3H] ligand binding to purified bacterial membranes expressing His10-PGRMC1 (+PGRMC1); conditions: for Membrane-Associated [^3H] Ligand / Kd / Q1 / Q2: +PGRMC1 membranes; for Membrane-Associated [^3H] Ligand, Specific: Specific (+PGRMC1 minus −PGRMC1); for saturability of specific binding: ligand concentration spanning four orders of magnitude, FIG. 8; for His10-PGRMC1 specific binding with proteolyzed membranes: membranes trypsin-treated prior to ligand binding; for ligand bound at saturation/equilibrium in time course: 37° C; for ligand bound at saturation/equilibrium in time course / time to reach saturation/equilibrium of binding: FIG. 5, time course; for Q1: number of non-specific sites; for Q2: number of specific sites
T1 construct: a product containing the full length coding region of PGMRC1 flanked by Nde1 and BamHI restriction sites; made in house; host or cells: E. coli BL21 (DE3) / BL21 codon plus (RIPL); purified bacterial membranes
T1 sequence (O00264 whole entry): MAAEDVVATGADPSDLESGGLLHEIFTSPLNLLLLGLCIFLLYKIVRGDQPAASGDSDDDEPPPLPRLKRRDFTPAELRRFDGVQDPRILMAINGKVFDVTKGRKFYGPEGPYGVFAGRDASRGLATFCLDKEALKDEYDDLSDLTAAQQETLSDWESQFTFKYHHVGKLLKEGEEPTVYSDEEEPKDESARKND
Description: For bacterial expression, BL21 (DE3) cells (Stratagene, LaJolla, Calif.) were transformed with pET-16b:PGRMC1 and plated on LB agar plates containing ampicillin (amp). One to 7 days later, individual colonies were harvested and used to inoculate small volume (5-200 mL) liquid cultures of LB-amp media. Cultures were grown with shaking at 37° C. until early log phase (OD600=0.6). IPTG was added to a final concentration of […] and the cultures were incubated for another 4 hours at 37° C. or overnight at room temperature. His10-PGRMC1 (His10 disclosed as SEQ ID NO: 14) expression was confirmed by SDS-PAGE followed by Coomassie stain and western blot using mouse monoclonal anti-tetra-His (SEQ ID NO: 15) antibody (Qiagen, Valencia, Calif.).
IPTG-induced cells were harvested by centrifugation (5,000 rpm; 5 min) and washed with ice-cold H2O. The pellet was resuspended in 5 mL buffer A (50 mM Tris-HCl pH 7.5, 150 mM NaCl, 0.1% NP40, and 10% glycerol) with 5-10 mg lysozyme, and incubated on ice for 30 min. The cells were then disrupted by three bursts of sonication (45 sec) at high intensity with a 45 sec cooling period between bursts. Soluble material was removed by centrifugation (15,000 rpm, 10 min) and the pellet resuspended in 5 mL buffer A. His10-PGRMC1 (His10 disclosed as SEQ ID NO: 14) was confirmed to be present in purified membranes by SDS-PAGE followed by Coomassie stain and western blot using anti-tetra-His (SEQ ID NO: 15) antibody (Qiagen). Total protein in the His10-PGRMC1 (His10 disclosed as SEQ ID NO: 14) transformed and untransformed purified membranes was determined by the Bradford method and membranes were normalized to 10 μg/μL total protein (diluted with buffer A). Purified membranes were then aliquoted and stored frozen until use.
(§1) The standard 10 μL binding reaction contained 10 μp purified membranes (total protein) and 10 μM [^3H] progesterone or [^3H] cholesterol (3,000-5,000 cpm) in buffer A: 20% ethanol. Stock solutions (100 μM) of [^3H] cholesterol and [^3H] progesterone containing ˜4×10^4 cpm/μL, were prepared in 95% ethanol. Reactions were prepared in clear 2.0 mL microcentrifuge tubes on ice. To start the reaction, the microfuge tube was briefly mixed (vortex) and placed at 37° C. Following a 10 to 30 min incubation, the tubes were centrifuged in a microfuge (˜13,000 rpm) for 2 min. The supernatant was carefully removed and the pellet was washed with an additional 10 μL water. After a second round of centrifugation (2 min; 13,000 rpm), the resulting supernatant was combined with the first and the pellet was resuspended in 20 μL H2O, Scintillation fluid (700 μL Wallac Optiflour) was added to each fraction and the fractions were mixed extensively. The fractions were then counted in a multi-well scintillation counter (Wallac Microbeta Triluxmax, Waltham, Mass.) for 30 seconds each. Binding are reported as μ/moles of ligand bound per mg of membrane protein. His10-PGRMC1 (His10 disclosed as SEQ ID NO: 14)-specific binding is reported as the difference in binding between transformed and untransformed bacteria. Experimental deviations from the standard assay conditions are noted in individual figure legends.
In order to better understand PGRMC1's biological function and to study ligand binding, an in vitro binding assay was developed. E. coli BL21 codon plus (RIPL) cells were transformed with a vector encoding PGRMC1 that was epitope tagged with 10 histidine (SEQ ID NO: 14) residues at the NH2-terminus. Untransformed BL21 cells were used as the control. A purification procedure was performed to remove soluble proteins and cell components from the transformed (+PGRMC1) and untransformed (−PGRMC1) bacterial membranes. The resulting purified membranes were confirmed for the presence and absence of His10-PGRMC1 (His10 disclosed as SEQ ID NO: 14) respectively by Coomassie stain and western blot using anti-His antibody. The membranes with [^3H] progesterone or [^3H] cholesterol were then incubated. […]

[2] = target: T1, His10-PGRMC1; experiment: Competition of cold competitors with [^3H] progesterone or [^3H] cholesterol for His10-PGRMC1 binding; conditions: for effect of cold competitor on binding of [^3H] cholesterol: competitor at ten-fold higher concentration; for effect of cold competitor on specific binding of [^3H] progesterone: excess cold competitor (10 or 100-fold), FIG. 9
Description: as §1
To test whether progesterone and cholesterol compete for the same specific binding site, the direct binding of [^3H] progesterone or [^3H] cholesterol to His10-PGRMC1 (His10 disclosed as SEQ ID NO: 14) in the presence of various cold competitors was examined. In these experiments, the standard amount of [^3H] ligand was combined with a cold competitor at either 10 or 100-fold higher concentration and mixed well to ensure homogeneity. These stock ligand solutions were then used in the standard binding assay as described.
The ability of other putative ligands reported in the literature to compete with progesterone binding was examined. […] As a control, cold progesterone (P) was used as a competitor and it was observed that excess cold progesterone competes with [^3H] progesterone for His10-PGRMC1 (His10 disclosed as SEQ ID NO: 14) binding. Contrastingly, binding of [^3H] cholesterol to His10-PGRMC1 (His10 disclosed as SEQ ID NO: 14) was unaffected by the presence of progesterone, ergosterol, or heme at ten-fold higher concentrations (FIG. 9, cholesterol). It was not until competitor concentrations were 100-fold higher than ligand that a reduction of cholesterol binding was observed.

[3] = Protease + (trypsin before ligand binding)
[4] = two binding site model fit of saturation data, non-specific site, read-out: Kd1
[5] = two binding site model, specific site, read-out: Kd2

With CC(=O)[C@H]1CC[C@H]2[C@@H]3CCC4=CC(=O)CC[C@]4(C)[C@H]3CC[C@]12C [Progesterone, progesterone] the “Membrane-Associated [^3H] Ligand” value [1, 3] was 1.6 ± 0.3 nmoles/mg protein, the “Membrane-Associated [^3H] Ligand” value ([1]; Protease −) was 3.1 ± 0.3 nmoles/mg protein and the “Membrane-Associated [^3H] Ligand, Specific” value ([1]; Protease +) was 0.0 ± 0.1 nmoles/mg protein. The “Membrane-Associated [^3H] Ligand, Specific” value ([1]; Protease −) was 0.7 ± 0.2 nmoles/mg protein, the “saturability of specific binding” value [1] was “appeared to be saturable” and the “His10-PGRMC1 specific binding with proteolyzed membranes” value [1] was “complete loss”. For the same compound, the “ligand concentration at half-maximal specific binding” value ([1]; saturation experiment, FIG. 8A) was “approximately 50 μM”, the “ligand bound at saturation/equilibrium in time course” value [1] was “approximately 0.5 nmoles/mg protein” and the “time to reach saturation/equilibrium of binding” value [1] was 15 to 30 min. For the same compound, the Kd [1, 4] was 1000 µM, the Q1 ([1]; two binding site model) was 8.0 × 10^9 Sites and the Q2 ([1]; two binding site model) was 19,260 Sites. For the same compound, the Q2 ([1]; two binding site model, listed as progesterone) was “approximately 20,000 Sites”, the Kd [1, 5] was 0.0055 µM and 0.00554 µM and the “effect of cold competitor on binding of [^3H] cholesterol” value [2] was “unaffected”. For the same compound, the “effect of cold competitor on specific binding of [^3H] progesterone” value [2] was “competes”.
For CC(C)CCC[C@@H](C)[C@H]1CC[C@H]2[C@@H]3CC=C4C[C@@H](O)CC[C@]4(C)[C@H]3CC[C@]12C [Cholesterol, cholesterol], the “Membrane-Associated [^3H] Ligand” value [1, 3] was 2.6 ± 0.2 nmoles/mg protein, the “Membrane-Associated [^3H] Ligand” value ([1]; Protease −) was 5.2 ± 0.3 nmoles/mg protein and the “Membrane-Associated [^3H] Ligand, Specific” value ([1]; Protease +) was 0.0 ± 0.2 nmoles/mg protein. The “Membrane-Associated [^3H] Ligand, Specific” value ([1]; Protease −) was 1.5 ± 0.2 nmoles/mg protein, the “cholesterol binding relative to progesterone binding” value ([1]; higher at every time point of the time course) was 2-3 fold and the “saturability of specific binding” value [1] was “did not appear to be saturable”. For the same compound, the “His10-PGRMC1 specific binding with proteolyzed membranes” value [1] was “complete loss”, the “Kd of cholesterol relative to progesterone (fold lower)” value ([1]; specific site, two binding site model) was 15 fold and the “ligand bound at saturation/equilibrium in time course” value [1] was roughly 2 nmoles/mg protein. For the same compound, the “time to reach saturation/equilibrium of binding” value [1] was “approximately the same rate as progesterone”, the Kd [1, 4] was 1000 µM and the Q1 ([1]; two binding site model) was 9.6 × 10^9 Sites. The Kd [1, 5] was 0.00035 µM, the “competitor excess over ligand at which a reduction of [^3H] cholesterol binding was observed” value [2] was 100 fold and the “effect of cold competitor on binding of [^3H] cholesterol” value [2] was “did not begin to reduce”. The “effect of cold competitor on specific binding of [^3H] progesterone” value [2] was “greatly reduced”.
